Measurements published in ChEMBL document CHEMBL1201862, “PubChem BioAssay data set” (2004).
Activity calls are given as the source filed them.

Experiments:
[1] = biological target: T1, Kappa-type opioid receptor (Homo sapiens, UniProt P41145); assay type: functional
Mu-type opioid receptor [2] = biological target: T2, Mu-type opioid receptor (Homo sapiens, UniProt P35372); assay: MOR antagonists, SAR follow-up, image-based (AID 2420); assay type: functional;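 further: compounds added before stimulation of receptor with agonist DAMGO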
[3] = biological target: T3, Delta-type opioid receptor (Homo sapiens, UniProt P41143); assay: HTS Image-Based Screen for Antagonists of the DOR Receptor. [Related pubchem assays (depositor defined):AID1777, AID1785, AID1786, AID2133]; assay type: functional
[4] = biological target: T1, Kappa-type opioid receptor; assay: KOR agonist analogs, imaging readout, SAR follow-up, image-based (AID 2359); assay type: functional
[5] = biological target: T1, Kappa-type opioid receptor; assay type: functional; remark: listed apart in the source
[6] = biological target: T3, Delta-type opioid receptor; assay: DOR agonists, SAR follow-up, image-based (AID 2370); assay type: functional
Mu-type opioid receptor [7] = biological target: T2, Mu-type opioid receptor; assay: HTS Image-Based Screen for Agonists of the MOR Receptor. [Related pubchem assays (depositor defined):AID1777, AID1785, AID1786, AID2133]; assay type: functional
[8] = biological target: T1, Kappa-type opioid receptor; assay: KOR antagonists by imaging, SAR follow-up, image-based (AID 2348); assay type: functional
[9] = biological target: T1, Kappa-type opioid receptor; assay type: functional; remark: listed apart in the source
[10] = biological target: T3, Delta-type opioid receptor; assay: HTS Image-Based Screen for Agonists of the DOR Receptor. [Related pubchem assays (depositor defined):AID1777, AID1786, AID2133]; assay type: functional
Mu-type opioid receptor [11] = biological target: T2, Mu-type opioid receptor; assay: MOR agonists by imaging, SAR follow-up, image-based (AID 2352); assay type: functional
[12] = biological target: T1, Kappa-type opioid receptor; assay: SAR analysis of small molecule agonists of the kappa opioid receptor via a luminescent beta-arrestin assay. [Related pubchem assays (depositor defined):AID1777, AID1786, AID1966, AID2133, AID2136, AID2348, AID2352, AID2357, AID2359, AID2370, AID2420, AID2478, AID2491, AID2492, AID2493, AID2497, AID2498, AID2500, AID449737, AID488822, AID488842]; assay type: functional
[13] = biological target: T3, Delta-type opioid receptor; assay: DOR antagonists, SAR follow-up, image-based (AID 2357); assay type: functional
[14] = Shn3 3'UTR reporter inhibitors, dose response, cell-based, Clone20 osteoblasts, firefly luciferase, cherry-picked (AID 624132); assay type: functional;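 further: firefly luciferase luminescence from reporter carrying the Shn3 3'UTR in osteoblasts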
Mucolipin-3 = Mucolipin-3 (Homo sapiens, UniProt Q8TDD5); assay: Fluorescence counterscreen assay for […] agonists: dose response cell-based high-throughput screening assay to identify agonists of the transient receptor potential channel ML3 (TRPML3). [Related pubchem assays: 1424, 1448 ]; assay type: functional
[15] = control 3'UTR Renilla luciferase suppression, dose response, counter-screen for Shn3 inhibitor project, cell-based, Clone20-Shn3RL, cherry-picked (AID 624133); assay type: functional
Ion channel NompC = Ion channel NompC (Danio rerio, UniProt Q7T1G6); assay: Dose response cell-based high-throughput screening assay for agonists of the transient receptor potential channel N1 (TRPN1). [Related pubchem assays (depositor defined):AID1424, AID1448]; assay type: functional
[16] = HepG2 cell cytotoxicity, dose response, cytotoxicity control for Shn3 inhibitor project, CellTiter-Glo, cherry-picked (AID 624134); assay type: functional, cell-based
[17] = biological target: DNA dC->dU-editing enzyme APOBEC-3G (Homo sapiens, UniProt Q9HC16); assay: Dose Response confirmation of small molecule APOBEC3G DNA Deaminase Inhibitors via a fluorescence-based single-stranded DNA deaminase assay. [Related pubchem assays (depositor defined):AID493012, AID493028]; assay type: functional
[18] = biological target: Glucose-6-phosphate 1-dehydrogenase (Homo sapiens, UniProt P11413); assay: human G6PD enzyme inhibitors, dose response, selectivity assay for P. falciparum G6PD inhibitor project, biochemical, fluorescence (AID 504792); assay type: functional
[19] = biological target: T4, Tyrosine-protein phosphatase non-receptor type 7 (Homo sapiens, UniProt P35236); assay: SAR analysis of chemical inhibitors of HePTP using a Fluorescent assay - Set 2. [Related pubchem assays (depositor defined):AID1059, AID1077, AID1661, AID2085, AID521]; assay type: functional
T4 sequence (P35236 whole entry): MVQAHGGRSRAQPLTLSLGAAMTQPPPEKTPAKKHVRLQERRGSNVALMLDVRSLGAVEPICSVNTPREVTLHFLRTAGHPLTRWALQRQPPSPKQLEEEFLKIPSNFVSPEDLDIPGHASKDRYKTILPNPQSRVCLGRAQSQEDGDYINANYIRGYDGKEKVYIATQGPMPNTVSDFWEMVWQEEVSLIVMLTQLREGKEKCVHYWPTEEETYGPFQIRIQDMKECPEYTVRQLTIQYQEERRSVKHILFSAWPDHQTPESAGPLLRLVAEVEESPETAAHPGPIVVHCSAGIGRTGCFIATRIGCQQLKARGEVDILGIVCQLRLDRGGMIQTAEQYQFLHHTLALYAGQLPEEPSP

[20] = biological target: T5, Dual specificity protein phosphatase 6 (Rattus norvegicus, UniProt Q64346); assay: MKP-3 phosphatase inhibitors, primary screen, biochemical, rat enzyme, in vitro (AID 425)
T5 sequence (Q64346 whole entry): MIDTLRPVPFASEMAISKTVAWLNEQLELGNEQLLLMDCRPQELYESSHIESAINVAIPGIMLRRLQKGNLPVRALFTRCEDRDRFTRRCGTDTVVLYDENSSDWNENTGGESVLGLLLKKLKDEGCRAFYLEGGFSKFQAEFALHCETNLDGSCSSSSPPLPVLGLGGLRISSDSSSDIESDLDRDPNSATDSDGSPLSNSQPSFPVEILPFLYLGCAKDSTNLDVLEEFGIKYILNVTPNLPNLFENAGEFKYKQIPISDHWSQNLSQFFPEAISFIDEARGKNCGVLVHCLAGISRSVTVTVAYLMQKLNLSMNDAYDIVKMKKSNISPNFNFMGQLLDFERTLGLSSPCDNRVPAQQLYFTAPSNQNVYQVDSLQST

[21] = biological target: T6, Dual specificity protein phosphatase 3 (Homo sapiens, UniProt P51452); assay: VHR1 phosphatase inhibitors, biochemical (AID 1878)
[22] = biological target: DNA dC->dU-editing enzyme APOBEC-3A (Homo sapiens, UniProt P31941); assay: APOBEC3A DNA deaminase inhibitors, dose response, biochemical (AID 504722); assay type: functional
[23] = biological target: T6, Dual specificity protein phosphatase 3; assay: SAR VHR1 absorbance Assay for In Vitro dose response studies. [Related pubchem assays (depositor defined):AID1654, AID1661, AID1878, AID1992, AID2004]
[24] = biological target: T6, Dual specificity protein phosphatase 3; assay: VHR1 phosphatase inhibitors, primary screen, biochemical, absorbance, uHTS (AID 1654)
[25] = biological target: T4, Tyrosine-protein phosphatase non-receptor type 7; assay: redox-dependent HePTP inhibition, mechanism study, biochemical, fluorescence (AID 2068); assay type: functional
[26] = biological target: T5, Dual specificity protein phosphatase 6; assay type: functional
[27] = biological target: Peroxisome proliferator-activated receptor gamma/Nuclear receptor coactivator 3 (Homo sapiens, UniProt P37231); assay type: functional;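 further: agonist potency for raising coactivator recruitment to the receptor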
[28] = biological target: T5, Dual specificity protein phosphatase 6; assay: SAR analysis of inhibitors of MKP-3 - Set 2. [Related pubchem assays (depositor defined):AID1055, AID1661, AID425, AID553, AID566]; assay type: functional
[29] = biological target: Peroxisome proliferator-activated receptor gamma/Nuclear receptor coactivator 1 (Homo sapiens, UniProt P37231); assay type: functional;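 further: agonist potency as compounds enhance coactivator SRC-1 recruitment to PPARgamma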
[30] = biological target: T6, Dual specificity protein phosphatase 3; assay: SAR VHR1 Fluorescent Assay for In Vitro dose response studies. [Related pubchem assays (depositor defined):AID1654, AID1661, AID1878, AID1992, AID2004, AID2070, AID2085]; assay type: functional
[31] = biological target: Peroxisome proliferator-activated receptor gamma/Nuclear receptor coactivator 2 (Homo sapiens, UniProt P37231); assay type: functional;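 further: agonist potency for raising coactivator recruitment to the receptor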
[32] = biological target: T6, Dual specificity protein phosphatase 3; assay: SAR VHR1 Fluorescent Assay for In Vitro dose response studies Set 2. [Related pubchem assays (depositor defined):AID1654, AID1661, AID1878]; assay type: functional
[33] = biological target: T7, Alkaline phosphatase, tissue-nonspecific isozyme (Homo sapiens, UniProt P05186); assay: TNAP enzyme inhibition by screening hits, dose response, selectivity assay for mouse IAP inhibitor project, biochemical, human TNAP, uHTS hits (AID 488906); assay type: functional
T7 sequence (P05186 whole entry): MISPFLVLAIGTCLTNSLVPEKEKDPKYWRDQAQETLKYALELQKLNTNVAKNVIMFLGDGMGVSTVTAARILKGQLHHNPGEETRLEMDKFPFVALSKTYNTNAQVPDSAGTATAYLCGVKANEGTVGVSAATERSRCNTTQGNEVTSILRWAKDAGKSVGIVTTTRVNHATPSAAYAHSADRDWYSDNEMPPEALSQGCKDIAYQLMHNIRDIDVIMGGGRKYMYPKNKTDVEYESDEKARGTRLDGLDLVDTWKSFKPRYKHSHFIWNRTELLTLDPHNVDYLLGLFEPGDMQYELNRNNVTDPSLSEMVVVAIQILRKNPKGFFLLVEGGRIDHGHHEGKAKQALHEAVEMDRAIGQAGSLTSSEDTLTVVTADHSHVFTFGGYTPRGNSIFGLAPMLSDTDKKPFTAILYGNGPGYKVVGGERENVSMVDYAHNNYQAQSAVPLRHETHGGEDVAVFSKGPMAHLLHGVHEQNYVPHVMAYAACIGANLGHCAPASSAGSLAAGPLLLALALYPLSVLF

[34] = biological target: Intestinal-type alkaline phosphatase (Homo sapiens, UniProt P09923); assay: activation of human intestinal alkaline phosphatase – biochemical, dose response (AID 488873); assay type: functional
[35] = biological target: Intestinal-type alkaline phosphatase (Mus musculus, UniProt P24822); assay: PubChem AID 488785; assay type: functional
Sequence of Intestinal-type alkaline phosphatase (Mus musculus, UniProt P24822) (P24822 whole entry): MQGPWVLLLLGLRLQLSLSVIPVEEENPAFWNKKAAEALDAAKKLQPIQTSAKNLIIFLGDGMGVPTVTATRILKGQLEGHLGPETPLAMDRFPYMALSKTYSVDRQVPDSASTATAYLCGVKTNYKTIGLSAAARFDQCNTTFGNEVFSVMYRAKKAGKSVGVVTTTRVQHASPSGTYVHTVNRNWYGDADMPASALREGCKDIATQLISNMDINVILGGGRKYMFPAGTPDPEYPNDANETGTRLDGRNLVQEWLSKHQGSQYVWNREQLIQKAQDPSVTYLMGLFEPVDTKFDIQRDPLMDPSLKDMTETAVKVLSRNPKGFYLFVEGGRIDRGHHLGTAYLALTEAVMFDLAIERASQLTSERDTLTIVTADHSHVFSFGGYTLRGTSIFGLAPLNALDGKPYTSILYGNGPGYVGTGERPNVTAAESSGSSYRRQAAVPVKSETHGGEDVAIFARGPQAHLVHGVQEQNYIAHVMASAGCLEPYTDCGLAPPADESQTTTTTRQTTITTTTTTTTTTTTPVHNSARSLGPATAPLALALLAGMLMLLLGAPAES

T3 sequence (P41143 whole entry): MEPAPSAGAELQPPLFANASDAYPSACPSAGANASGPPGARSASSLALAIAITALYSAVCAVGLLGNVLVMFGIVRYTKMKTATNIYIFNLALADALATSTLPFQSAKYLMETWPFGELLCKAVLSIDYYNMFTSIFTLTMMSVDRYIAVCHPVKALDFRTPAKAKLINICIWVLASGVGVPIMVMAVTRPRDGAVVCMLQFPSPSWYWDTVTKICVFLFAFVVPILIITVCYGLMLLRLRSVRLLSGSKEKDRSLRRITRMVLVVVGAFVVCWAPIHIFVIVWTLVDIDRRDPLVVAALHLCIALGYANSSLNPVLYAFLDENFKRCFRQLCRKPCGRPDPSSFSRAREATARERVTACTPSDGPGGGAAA
T1 sequence (P41145 whole entry): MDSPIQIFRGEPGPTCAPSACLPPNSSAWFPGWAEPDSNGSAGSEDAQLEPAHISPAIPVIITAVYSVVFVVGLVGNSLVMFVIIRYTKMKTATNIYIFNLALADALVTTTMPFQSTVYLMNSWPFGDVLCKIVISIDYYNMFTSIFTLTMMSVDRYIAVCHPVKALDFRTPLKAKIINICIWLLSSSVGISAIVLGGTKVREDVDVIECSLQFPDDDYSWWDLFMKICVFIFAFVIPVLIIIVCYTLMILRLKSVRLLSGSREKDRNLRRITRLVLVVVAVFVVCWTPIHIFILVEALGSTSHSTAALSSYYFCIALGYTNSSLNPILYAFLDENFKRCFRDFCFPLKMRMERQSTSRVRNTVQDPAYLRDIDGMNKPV
T2 sequence (P35372 whole entry): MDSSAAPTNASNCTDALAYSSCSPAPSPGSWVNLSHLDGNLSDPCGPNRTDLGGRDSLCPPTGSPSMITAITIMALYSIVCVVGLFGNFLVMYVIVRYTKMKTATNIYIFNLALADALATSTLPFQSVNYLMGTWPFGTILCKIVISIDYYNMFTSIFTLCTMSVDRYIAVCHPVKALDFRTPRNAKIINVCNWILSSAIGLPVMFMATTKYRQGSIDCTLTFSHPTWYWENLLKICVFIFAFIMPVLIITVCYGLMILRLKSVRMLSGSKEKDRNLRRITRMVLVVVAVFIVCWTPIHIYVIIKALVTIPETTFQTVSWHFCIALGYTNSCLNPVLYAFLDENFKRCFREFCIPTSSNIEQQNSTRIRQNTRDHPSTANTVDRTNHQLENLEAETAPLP
T6 sequence (P51452 whole entry): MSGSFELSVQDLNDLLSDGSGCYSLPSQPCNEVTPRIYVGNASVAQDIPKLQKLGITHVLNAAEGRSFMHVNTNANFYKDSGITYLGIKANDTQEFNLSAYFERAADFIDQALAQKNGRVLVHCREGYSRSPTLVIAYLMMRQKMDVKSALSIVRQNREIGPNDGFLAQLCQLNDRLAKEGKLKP
Sequence of Mucolipin-3 (Q8TDD5 whole entry): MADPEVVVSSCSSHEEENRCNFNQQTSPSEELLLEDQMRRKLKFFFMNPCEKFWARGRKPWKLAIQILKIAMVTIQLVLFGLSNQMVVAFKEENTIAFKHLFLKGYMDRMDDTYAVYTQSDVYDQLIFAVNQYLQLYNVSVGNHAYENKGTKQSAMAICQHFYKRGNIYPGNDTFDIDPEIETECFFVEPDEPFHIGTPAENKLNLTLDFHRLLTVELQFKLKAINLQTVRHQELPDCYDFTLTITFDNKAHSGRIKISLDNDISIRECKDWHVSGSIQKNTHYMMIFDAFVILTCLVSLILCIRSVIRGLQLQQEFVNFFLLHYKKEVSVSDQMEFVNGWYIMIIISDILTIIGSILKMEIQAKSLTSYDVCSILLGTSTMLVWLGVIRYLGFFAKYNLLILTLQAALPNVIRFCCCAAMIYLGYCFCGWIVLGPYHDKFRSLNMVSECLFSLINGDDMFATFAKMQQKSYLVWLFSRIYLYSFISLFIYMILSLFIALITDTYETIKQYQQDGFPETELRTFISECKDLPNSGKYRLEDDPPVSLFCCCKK
Sequence of DNA dC->dU-editing enzyme APOBEC-3A (P31941 whole entry): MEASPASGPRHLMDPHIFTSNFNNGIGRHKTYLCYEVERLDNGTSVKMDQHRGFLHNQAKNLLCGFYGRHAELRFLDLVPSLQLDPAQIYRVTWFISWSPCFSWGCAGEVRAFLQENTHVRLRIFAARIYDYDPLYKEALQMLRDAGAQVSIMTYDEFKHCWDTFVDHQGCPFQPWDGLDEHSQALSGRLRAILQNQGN
Sequence of Ion channel NompC (Q7T1G6 whole entry): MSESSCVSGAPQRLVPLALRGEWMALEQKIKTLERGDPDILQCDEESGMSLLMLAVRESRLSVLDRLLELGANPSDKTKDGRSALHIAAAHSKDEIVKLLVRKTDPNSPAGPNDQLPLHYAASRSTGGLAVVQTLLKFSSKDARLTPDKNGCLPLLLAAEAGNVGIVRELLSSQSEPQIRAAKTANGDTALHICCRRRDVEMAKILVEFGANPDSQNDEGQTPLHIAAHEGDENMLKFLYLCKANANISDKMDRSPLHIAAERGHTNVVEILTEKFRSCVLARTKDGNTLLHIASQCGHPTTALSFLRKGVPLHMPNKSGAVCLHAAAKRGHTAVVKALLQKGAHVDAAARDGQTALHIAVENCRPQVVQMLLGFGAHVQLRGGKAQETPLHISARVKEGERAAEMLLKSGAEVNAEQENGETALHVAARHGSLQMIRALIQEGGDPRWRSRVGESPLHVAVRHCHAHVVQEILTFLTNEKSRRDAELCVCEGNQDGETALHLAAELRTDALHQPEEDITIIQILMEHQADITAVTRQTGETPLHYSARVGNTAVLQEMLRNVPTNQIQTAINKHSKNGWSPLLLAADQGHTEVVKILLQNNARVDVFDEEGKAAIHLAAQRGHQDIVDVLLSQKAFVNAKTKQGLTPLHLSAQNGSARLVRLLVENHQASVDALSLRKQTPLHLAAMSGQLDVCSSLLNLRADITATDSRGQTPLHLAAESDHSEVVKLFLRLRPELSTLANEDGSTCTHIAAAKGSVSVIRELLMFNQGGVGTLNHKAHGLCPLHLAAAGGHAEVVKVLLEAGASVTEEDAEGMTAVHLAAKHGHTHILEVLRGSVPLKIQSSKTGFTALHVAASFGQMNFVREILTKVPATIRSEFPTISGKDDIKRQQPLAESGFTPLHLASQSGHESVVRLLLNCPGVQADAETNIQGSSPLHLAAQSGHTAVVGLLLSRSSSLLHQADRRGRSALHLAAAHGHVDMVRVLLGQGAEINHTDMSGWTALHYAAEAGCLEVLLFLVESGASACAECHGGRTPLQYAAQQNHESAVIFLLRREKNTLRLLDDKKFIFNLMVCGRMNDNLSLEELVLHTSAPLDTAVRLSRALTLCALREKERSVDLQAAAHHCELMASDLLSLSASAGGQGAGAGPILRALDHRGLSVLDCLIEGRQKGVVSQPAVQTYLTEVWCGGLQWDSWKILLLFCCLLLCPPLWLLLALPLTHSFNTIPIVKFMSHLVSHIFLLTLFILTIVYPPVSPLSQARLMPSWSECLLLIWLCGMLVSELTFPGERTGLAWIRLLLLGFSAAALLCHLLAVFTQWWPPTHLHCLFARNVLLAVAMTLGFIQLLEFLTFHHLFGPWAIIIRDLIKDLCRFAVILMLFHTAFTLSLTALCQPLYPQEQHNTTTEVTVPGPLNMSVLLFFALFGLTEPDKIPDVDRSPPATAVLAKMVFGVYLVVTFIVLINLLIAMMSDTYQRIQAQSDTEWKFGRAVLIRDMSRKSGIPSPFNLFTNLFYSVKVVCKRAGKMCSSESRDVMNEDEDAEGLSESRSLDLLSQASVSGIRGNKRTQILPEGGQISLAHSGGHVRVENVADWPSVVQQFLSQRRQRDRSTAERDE
Sequence of DNA dC->dU-editing enzyme APOBEC-3G (Q9HC16 whole entry): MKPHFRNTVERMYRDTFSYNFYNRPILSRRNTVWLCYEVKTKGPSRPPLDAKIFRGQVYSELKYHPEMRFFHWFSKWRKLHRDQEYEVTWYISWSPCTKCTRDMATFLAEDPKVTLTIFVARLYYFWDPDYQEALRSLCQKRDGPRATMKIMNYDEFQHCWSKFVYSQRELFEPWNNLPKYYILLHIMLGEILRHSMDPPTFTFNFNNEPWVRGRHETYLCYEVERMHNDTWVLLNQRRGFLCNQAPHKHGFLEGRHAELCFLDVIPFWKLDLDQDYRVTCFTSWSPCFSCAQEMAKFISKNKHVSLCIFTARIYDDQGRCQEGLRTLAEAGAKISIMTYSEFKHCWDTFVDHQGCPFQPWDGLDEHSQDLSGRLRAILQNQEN

Structure (SMILES): O=C(c1ccccn1)N(Cc1cccs1)C1(C(=O)NC2CCCCC2)CCCCC1
- EC50 [1]: 0.103 µM
- IC50 (Mu-type opioid receptor [2]): > 32 µM (inactive)
- IC50 [3]: > 32 µM (inactive)
- EC50 [4]: < 0.06 µM (active)
- IC50 [5]: > 5 µM (inactive)
- EC50 [6]: > 32 µM (inactive)
- EC50 (Mu-type opioid receptor [7]): > 32 µM (inactive)
- IC50 [8]: > 32 µM (inactive)
- EC50 [9]: < 0.5 µM
- EC50 [10]: > 32 µM (inactive)
- EC50 (Mu-type opioid receptor [11]): > 32 µM (inactive)
- EC50 [12]: 0.116 µM (active)
- IC50 [13]: > 32 µM (inactive)

Structure (SMILES): Cc1ccc([N+](=O)[O-])cc1NC(=O)Nc1cccc(F)c1
- AC50 [14]: 2.21 µM (active)
- EC50 (Mucolipin-3): > 29.9 µM (not active)
- AC50 [15]: 2.13 µM (active)
- EC50 (Ion channel NompC): > 29.9 µM (inactive)
- AC50 [16]: 7.82 µM (active)

Structure (SMILES): Cc1ccc(-n2c(N)c(C(=O)N3CCN(C)CC3)sc2=S)cc1
- IC50 [17]: 7.99 µM (active)
- IC50 [18]: > 80 µM (inactive)
- IC50 [19]: 0.455 µM (active)
- IC50 [20]: > 158 µM (not active)
- IC50 [21]: 5.73 µM (active)
- IC50 [22]: > 100 µM (inactive)
- IC50 [23]: 0.25 µM (active)
- IC50 [24]: 2.33 µM (active)
- IC50 [25]: 0.0144 µM (active)
- IC50 [26]: > 99 µM (inactive)
- EC50 [27]: > 79.4 µM (not active)
- IC50 [28]: > 100 µM (inactive)
- EC50 [29]: > 79.4 µM (not active)
- IC50 [30]: > 99 µM (inactive)
- EC50 [31]: > 79.4 µM (not active)
- IC50 [32]: 0.402 µM (active)

Structure (SMILES): CN(CC(=O)Nc1cccc(Cl)c1)S(=O)(=O)c1ccc2[nH]c(=O)oc2c1
- IC50 [33]: 7.87 µM (active)
- EC50 [34]: > 100 µM (inactive)
- IC50 [35]: 9.88 µM (active)
